Starred links: 1 amine or outer side, 2 acyl side, 3 side chain; linkers in the order of their positions; H or OH if unused. Positions of bridges follow the written chain, without caps; N, C: chain ends. Non-standard residues stand in square brackets, D forms with d. Residues, ends and D or L forms follow the SMILES beside them. *: point of attachment. hPhe(3-Cl-4-CF3) = N[C@@H](CCc1ccc(C(F)(F)F)c(Cl)c1)C(=O)O; 3Oxa8azabicyclo(3.2.1)octane = C1CC2COCC1N2*; NMeAbu(4,4,4-F3) = CN[C@@H](CC(F)(F)F)C(=O)O; NMePhe(4-Me) = CN[C@@H](Cc1ccc(C)cc1)C(=O)O; NMeNle(6-CHF2) = CN[C@@H](CCCCC(F)F)C(=O)O; NMedβ3hAla = C[C@H](CC(=O)[*:2])N(C)[*:1]; NMePhe(2-F) = CN[C@@H](Cc1ccccc1F)C(=O)O; hPhe(4-F) = N[C@@H](CCc1ccc(F)cc1)C(=O)O; Morpholine(3S-CO) = O=C(O)[C@@H]1COCCN1; Phe(3-I) = N[C@@H](Cc1cccc(I)c1)C(=O)O; Phe(2-Me) = Cc1ccccc1C[C@H](N)C(=O)O; NMeGly(cBu) = CN[C@H](C(=O)O)C1CCC1; NMeCha = CN[C@@H](CC1CCCCC1)C(=O)O; X2 = C=CC[C@](C)(N[*:1])C(=O)[*:2]; Ala(cPr) = N[C@@H](CC1CC1)C(=O)O; NMeChg = CN[C@H](C(=O)O)C1CCCCC1; NMeI = CC[C@H](C)[C@H](NC)C(=O)O; NMeD = CN[C@@H](CC(=O)O)C(=O)O; NMeL = CN[C@@H](CC(C)C)C(=O)O; NMehSer = CN[C@@H](CCO)C(=O)O; NMeV = CN[C@H](C(=O)O)C(C)C; NMeS = CN[C@@H](CO)C(=O)O; Ac6c = NC1(C(=O)O)CCCCC1; Iva = CC[C@](C)(N)C(=O)O; NMeA = CN[C@@H](C)C(=O)O; NMeAib = CNC(C)(C)C(=O)O; Piperidide = C1CCN(*)CC1; Pyrrolidide = C1CCN(*)C1; Ac5c = NC1(C(=O)O)CCCC1; Aze = O=C(O)[C@@H]1CCN1; Cyclobutyl = C1CC(*)C1; Sar = CNCC(=O)O
Experiments:
[1] = target: T1, Kras and SOS1 (biotin-tagged human Kras loaded with GDP, His-tagged human SOS1) (Homo sapiens, UniProt P01116, G12D); experiment: Protein-protein interaction inhibition between Kras and SOS1 (KrasGl2D-SOS PPI) using AlphaScreen; assay type: binding; settings: AlphaScreen; biotin-tagged human Kras loaded with GDP, His-tagged human SOS1; read-out: KRAS G12D-SOS PPI IC50
T1 construct: made in house; host or cells: E. coli (stated for Kras only)
T1 sequence (P01116 1-188 isoform P01116-2 G12D): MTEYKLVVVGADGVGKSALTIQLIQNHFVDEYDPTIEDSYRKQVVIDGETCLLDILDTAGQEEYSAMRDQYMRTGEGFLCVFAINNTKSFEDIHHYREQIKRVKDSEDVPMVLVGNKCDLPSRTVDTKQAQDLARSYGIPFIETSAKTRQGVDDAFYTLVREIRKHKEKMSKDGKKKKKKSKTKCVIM
Summary of the method: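 Energy transfer from nickel-chelate donor beads bound to His-SOS1 to streptavidin acceptor beads bound to biotin-Kras, expressed in E. coli and loaded with GDP after purification, was monitored. Donors were excited at 680 nm; singlet oxygen reaching acceptors gave emission read at 520-620 nm.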

[2] = tested on: Human pancreatic cancer cell line AsPC-1; experiment: Measurement of AsPC-1 cell growth inhibition (AsPC-1 CGI); assay type: cell-based; settings: 96 h
Summary of the method: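 AsPC-1 cells in 15% FBS RPMI-1640 were exposed to test compound for 96 hours at 37° C, with CellTiter-Glo as endpoint.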

SMILES | IC50 [1] [nM] | IC50 [2] [nM]
CC[C@H](C)[C@@H]1NC(=O)[C@H](CC(C)C)N(C)C(=O)C[C@@H](C(=O)N2CCCCC2)N(C)C(=O)[C@H](CC(C)C)NC(=O)C(C)(C)N(C)C(=O)[C@H](Cc2ccccc2C)NC(=O)[C@H](Cc2cccc(I)c2)NC(=O)CN(C)C(=O)[C@H](Cc2ccc(C)cc2)N(C)C(=O)CN(C)C(=O)CN(C)C1=O [Compound 596] ([NMeL]I[Sar][Sar][NMePhe(4-Me)][Sar][Phe(3-I)][Phe(2-Me)][NMeAib]L[NMeD]-Piperidide; lactam N-11) | 34 | > 500
CC[C@H](C)[C@@H]1NC(=O)[C@H](CC(C)C)N(C)C(=O)C[C@@H](C(=O)N2CCCCC2)N(C)C(=O)[C@H](C(C)C)N(C)C(=O)C2(CCCCC2)NC(=O)[C@@H]2CCCN2C(=O)[C@H](CCc2ccc(C(F)(F)F)c(Cl)c2)NC(=O)CN(C)C(=O)[C@H](CC2CCCCC2)N(C)C(=O)CN(C)C(=O)CN(C)C1=O [Compound 600] ([NMeL]I[Sar][Sar][NMeCha][Sar][hPhe(3-Cl-4-CF3)]P[Ac6c][NMeV][NMeD]-Piperidide; lactam N-11) | 4.5 | 100 to 500
CC[C@H](C)[C@@H]1NC(=O)[C@H](CC(C)C)N(C)C(=O)C[C@@H](C)N(C)C(=O)[C@H](C(C)C)N(C)C(=O)C2(CCCC2)NC(=O)[C@@H]2CCCN2C(=O)[C@H](CCc2ccc(C(F)(F)F)c(Cl)c2)NC(=O)CN(C)C(=O)[C@H](CC2CCCCC2)N(C)C(=O)CN(C)C(=O)CN(C)C1=O [Compound 608] (cyclo([Ac5c][NMeV][NMedβ3hAla][NMeL]I[Sar][Sar][NMeCha][Sar][hPhe(3-Cl-4-CF3)]P)) | 5.9 | 50 to 100
CC[C@H](C)[C@@H]1NC(=O)[C@H](CC(C)C)N(C)C(=O)C[C@@H](C(=O)N(C)C)N(C)C(=O)[C@H]([C@@H](C)CC)N(C)C(=O)C2(CCCC2)NC(=O)[C@H](Cc2ccccc2F)N(C)C(=O)[C@H](CCc2ccc(C(F)(F)F)c(Cl)c2)NC(=O)CN(C)C(=O)[C@H](Cc2ccc(C)cc2)N(C)C(=O)[C@@H]2CCN2C(=O)[C@H](C)N(C)C1=O [Compound 616] ([NMeL]I[NMeA][Aze][NMePhe(4-Me)][Sar][hPhe(3-Cl-4-CF3)][NMePhe(2-F)][Ac5c][NMeI][NMeD]-NMe2; lactam N-11) | 3.9 | 50 to 100
CC[C@H](C)[C@@H]1NC(=O)[C@H](C)N(C)C(=O)C[C@@H](C(=O)N2CCCCC2)N(C)C(=O)[C@H](C2CCCCC2)N(C)C(=O)C2(CCCC2)NC(=O)[C@@H]2CCCN2C(=O)[C@H](CCc2ccc(F)cc2)NC(=O)CN(C)C(=O)[C@H](CC2CCCCC2)N(C)C(=O)CN(C)C(=O)CN(C)C1=O [Compound 618] ([NMeA]I[Sar][Sar][NMeCha][Sar][hPhe(4-F)]P[Ac5c][NMeChg][NMeD]-Piperidide; lactam N-11) | 2.4 | 100 to 500
CC[C@H](C)[C@@H]1NC(=O)[C@H](CC(C)C)N(C)C(=O)C[C@@H](C(=O)N2CCCCC2)N(C)C(=O)[C@H](C(C)C)N(C)C(=O)[C@](C)(CC)NC(=O)[C@@H]2CCCN2C(=O)[C@H](CCc2ccc(C(F)(F)F)c(Cl)c2)NC(=O)CN(C)C(=O)[C@H](CC2CCCCC2)N(C)C(=O)CN(C)C(=O)CN(C)C1=O [Compound 620] ([NMeL]I[Sar][Sar][NMeCha][Sar][hPhe(3-Cl-4-CF3)]P[Iva][NMeV][NMeD]-Piperidide; lactam N-11) | 11 | 100 to 500
CC[C@H](C)[C@@H]1NC(=O)[C@H](CC(C)C)N(C)C(=O)C[C@@H](C)N(C)C(=O)[C@H](C2CCCCC2)N(C)C(=O)C2(CCCC2)NC(=O)[C@@H]2CCCN2C(=O)[C@H](CCc2ccc(C(F)(F)F)c(Cl)c2)NC(=O)CN(C)C(=O)[C@H](CC2CCCCC2)N(C)C(=O)CN(C)C(=O)CN(C)C1=O [Compound 629] (cyclo([Ac5c][NMeChg][NMedβ3hAla][NMeL]I[Sar][Sar][NMeCha][Sar][hPhe(3-Cl-4-CF3)]P)) | 10 | 100 to 500
CC[C@H](C)[C@@H]1NC(=O)[C@H](CC(C)C)N(C)C(=O)C[C@@H](C(=O)N2CCCCC2)N(C)C(=O)[C@H](C2CCCCC2)N(C)C(=O)C2(CCCC2)NC(=O)[C@@H]2CCCN2C(=O)[C@H](CCc2ccc(C(F)(F)F)c(Cl)c2)NC(=O)CN(C)C(=O)[C@H](CCCCC(F)F)N(C)C(=O)CN(C)C(=O)CN(C)C1=O [Compound 631] ([NMeL]I[Sar][Sar][NMeNle(6-CHF2)][Sar][hPhe(3-Cl-4-CF3)]P[Ac5c][NMeChg][NMeD]-Piperidide; lactam N-11) | 1 | 100 to 500
C=CC[C@]1(C)NC(=O)[C@@H]2CCCN2C(=O)[C@H](CCc2ccc(C(F)(F)F)c(Cl)c2)NC(=O)CN(C)C(=O)[C@H](CC2CCCCC2)N(C)C(=O)CN(C)C(=O)CN(C)C(=O)[C@H]([C@@H](C)CC)NC(=O)[C@H](CC(C)C)N(C)C(=O)C[C@@H](C)N(C)C(=O)[C@H](C(C)C)N(C)C1=O [Compound 644] (cyclo(I[Sar][Sar][NMeCha][Sar][hPhe(3-Cl-4-CF3)]P[X2][NMeV][NMedβ3hAla][NMeL])) | 17 | 100 to 500
CC[C@H](C)[C@@H]1NC(=O)[C@H](CC(F)(F)F)N(C)C(=O)C[C@@H](C(=O)N2CCCC2)N(C)C(=O)[C@H](C2CCCCC2)N(C)C(=O)C2(CCCC2)NC(=O)[C@@H]2CCCN2C(=O)[C@H](CCc2ccc(C(F)(F)F)c(Cl)c2)NC(=O)CN(C)C(=O)[C@H](CC2CCCCC2)N(C)C(=O)CN(C)C(=O)CN(C)C1=O [Compound 647] ([NMeAbu(4,4,4-F3)]I[Sar][Sar][NMeCha][Sar][hPhe(3-Cl-4-CF3)]P[Ac5c][NMeChg][NMeD]-Pyrrolidide; lactam N-11) | 0.58 | 20 to 50
CC[C@H](C)[C@@H]1NC(=O)[C@H](CCOC)N(C)C(=O)C[C@@H](C(=O)N2CCCCC2)N(C)C(=O)[C@H](C2CCCCC2)N(C)C(=O)C2(CCCC2)NC(=O)[C@@H]2CCCN2C(=O)[C@H](CCc2ccc(C(F)(F)F)c(Cl)c2)NC(=O)CN(C)C(=O)[C@H](CC2CCCCC2)N(C)C(=O)CN(C)C(=O)CN(C)C1=O [Compound 650] ([NMehSer](Me)I[Sar][Sar][NMeCha][Sar][hPhe(3-Cl-4-CF3)]P[Ac5c][NMeChg][NMeD]-Piperidide; lactam N-11) | 0.6 | 50 to 100
CC[C@H](C)[C@@H]1NC(=O)[C@H](CC(C)C)N(C)C(=O)C[C@@H](C(=O)N2CCCCC2)N(C)C(=O)[C@H](C2CCCCC2)N(C)C(=O)C2(CCCC2)NC(=O)[C@@H]2COCCN2C(=O)[C@H](CCc2ccc(C(F)(F)F)c(Cl)c2)NC(=O)CN(C)C(=O)[C@H](CC2CCCCC2)N(C)C(=O)CN(C)C(=O)CN(C)C1=O [Compound 662] ([NMeL]I[Sar][Sar][NMeCha][Sar][hPhe(3-Cl-4-CF3)][Morpholine(3S-CO)][Ac5c][NMeChg][NMeD]-Piperidide; lactam N-11) | 3.2 | 50 to 100
CC[C@H](C)[C@@H]1NC(=O)[C@H](CC(F)(F)F)N(C)C(=O)C[C@@H](C(=O)N2C3CCC2COC3)N(C)C(=O)[C@H](C2CCCCC2)N(C)C(=O)C2(CCCC2)NC(=O)[C@@H]2CCCN2C(=O)[C@H](CCc2ccc(C(F)(F)F)c(Cl)c2)NC(=O)CN(C)C(=O)[C@H](Cc2ccc(C)cc2)N(C)C(=O)CN(C)C(=O)CN(C)C1=O [Compound 683] ([NMeAbu(4,4,4-F3)]I[Sar][Sar][NMePhe(4-Me)][Sar][hPhe(3-Cl-4-CF3)]P[Ac5c][NMeChg][NMeD]-{3Oxa8azabicyclo(3.2.1)octane}; lactam N-11) | 0.61 | 50 to 100
CC(C)C[C@H]1C(=O)N[C@@H](CC2CC2)C(=O)N(C)CC(=O)N(C)CC(=O)N(C)[C@@H](CC2CCCCC2)C(=O)N(C)CC(=O)N[C@@H](CCc2ccc(C(F)(F)F)c(Cl)c2)C(=O)N2CCC[C@H]2C(=O)NC2(CCCC2)C(=O)N(C)[C@@H](C2CCCCC2)C(=O)N(C)[C@H](C(=O)N2CCCCC2)CC(=O)N1C [Compound 689] ([NMeL][Ala(cPr)][Sar][Sar][NMeCha][Sar][hPhe(3-Cl-4-CF3)]P[Ac5c][NMeChg][NMeD]-Piperidide; lactam N-11) | 2.1 | 100 to 500
CC[C@H](C)[C@@H]1NC(=O)[C@H](COC2CCC2)N(C)C(=O)C[C@@H](C(=O)N2CCCCC2)N(C)C(=O)[C@H](C2CCCCC2)N(C)C(=O)C2(CCCC2)NC(=O)[C@@H]2CCCN2C(=O)[C@H](CCc2ccc(C(F)(F)F)c(Cl)c2)NC(=O)CN(C)C(=O)[C@H](CC2CCCCC2)N(C)C(=O)CN(C)C(=O)CN(C)C1=O [Compound 699] ([NMeS](Cyclobutyl)I[Sar][Sar][NMeCha][Sar][hPhe(3-Cl-4-CF3)]P[Ac5c][NMeChg][NMeD]-Piperidide; lactam N-11) | 0.83 | 50 to 100
CC[C@H](C)[C@@H]1NC(=O)[C@H](C2CCC2)N(C)C(=O)C[C@@H](C(=O)N2C3CCC2COC3)N(C)C(=O)[C@H](C2CCCCC2)N(C)C(=O)C2(CCCC2)NC(=O)[C@@H]2CCCN2C(=O)[C@H](CCc2ccc(C(F)(F)F)c(Cl)c2)NC(=O)CN(C)C(=O)[C@H](CC2CCCCC2)N(C)C(=O)CN(C)C(=O)CN(C)C1=O [Compound 701] ([NMeGly(cBu)]I[Sar][Sar][NMeCha][Sar][hPhe(3-Cl-4-CF3)]P[Ac5c][NMeChg][NMeD]-{3Oxa8azabicyclo(3.2.1)octane}; lactam N-11) | 0.69 | 50 to 100
